Where a name gives a salt, the structure may show the parent alone. Read-outs that look alike come from different tables or passages of the source.
Assays:
human NTCP [1] = target: T1, human NTCP (Homo sapiens, UniProt Q14973); assay: Screening taurocholate uptake assay (96-well, [14C]taurocholate, 10 µM drug)
T1 sequence (Q14973 1-349): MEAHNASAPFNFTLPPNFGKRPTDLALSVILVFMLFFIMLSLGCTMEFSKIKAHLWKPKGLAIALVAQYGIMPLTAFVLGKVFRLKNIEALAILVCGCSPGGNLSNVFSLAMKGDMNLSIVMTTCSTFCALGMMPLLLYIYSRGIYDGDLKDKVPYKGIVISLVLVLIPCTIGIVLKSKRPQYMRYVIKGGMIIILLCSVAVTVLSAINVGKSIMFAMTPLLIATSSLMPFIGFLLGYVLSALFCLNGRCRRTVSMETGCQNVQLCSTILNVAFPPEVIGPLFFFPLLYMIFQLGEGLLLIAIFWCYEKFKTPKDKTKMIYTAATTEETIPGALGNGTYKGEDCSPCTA

human NTCP [2] = target: T1, human NTCP; assay: Screening fluorescent competitive Myrcludex B-FITC binding assay (96-well, 10 µM drug)
[3] = Prestwick library screen, taurocholate uptake, 10 µM drug
[4] = ranking score beside the functional and binding assay B-scores of the screen
[5] = Prestwick library screen, Myrcludex B-FITC binding, 10 µM drug
[6] = combined ranking from functional and binding screening assays
[7] = screen, 10 µM drug, taurocholate uptake
[8] = screen, 10 µM drug, Myrcludex B-FITC binding
[9] = Prestwick library screen, 10 µM drug, B-score of taurocholate uptake
[10] = combined ranking from functional and binding assay B-scores
[11] = Prestwick library screen, 10 µM drug, B-score of Myrcludex B-FITC binding

Row | Structure (SMILES) | B-score functional assay (human NTCP [1]; [3]) | Ranking score (human NTCP [1]; [4]) | B-score binding assay (human NTCP [2]; [5]) | B-score functional assay (human NTCP [1]; [9]) | Ranking score (human NTCP [1]; [10]) | B-score binding assay (human NTCP [2]; [11]) | further results
1 | O=C(CCCN1CC=C(n2c(=O)[nH]c3ccccc32)CC1)c1ccc(F)cc1 [Droperidol] | 0.035 | 713.526 | 0.092 |  |  |  | 
2 | CC[N+](C)(C)c1cccc(O)c1 [Edrophonium chloride] |  |  |  |  |  |  | Ranking score (human NTCP [1]; [6]): 420.888; B-score functional assay (human NTCP [1]; [7]): -1.061; B-score binding assay (human NTCP [2]; [8]): 0.083
3 | CCOC(=O)[C@H](CCc1ccccc1)N[C@@H](C)C(=O)N1CCC[C@H]1C(=O)O [Enalapril maleate] | 0.08 | 705.002 | 0.03 |  |  |  | 
4 | C[C@H](N[C@@H](CCc1ccccc1)C(=O)O)C(=O)N1CCC[C@H]1C(=O)O.O.O [Enalaprilat dihydrate] | 0.051 | 844.248 | 0.874 |  |  |  | 
5 | CCn1cc(C(=O)O)c(=O)c2cc(F)c(N3CCNCC3)nc21 [Enoxacin] |  |  |  | 3.277 | 1072.03 | 0.523 | 
6 | CCN1CCN(c2cc3c(cc2F)c(=O)c(C(=O)O)cn3C2CC2)CC1 [Enrofloxacin] | 0.028 | 706.109 | 0.083 |  |  |  | 
7 | CCN(CC)C(=O)/C(C#N)=C/c1cc(O)c(O)c([N+](=O)[O-])c1 [Entacapone] |  |  |  |  |  |  | Ranking score (human NTCP [1]; [6]): 366.148; B-score functional assay (human NTCP [1]; [7]): -0.441; B-score binding assay (human NTCP [2]; [8]): -0.647
8 | C[C@]12CC[C@H](O)C[C@@H]1CC[C@@H]1[C@@H]2CC[C@]2(C)C(=O)CC[C@@H]12 [Epiandrosterone] |  |  |  |  |  |  | B-score functional assay (human NTCP [1]): 2.177; Ranking score (human NTCP [1]): 1232.82; B-score binding assay (human NTCP [2]): 2.961
9 | COc1cccc2c1C(=O)c1c(O)c3c(c(O)c1C2=O)C[C@@](O)(C(=O)CO)C[C@@H]3O[C@H]1C[C@H](N)[C@@H](O)[C@H](C)O1 [Epirubicin hydrochloride] |  |  |  |  |  |  | B-score functional assay (human NTCP [1]): 0.079; Ranking score (human NTCP [1]): 915.844; B-score binding assay (human NTCP [2]): 1.555
10 | C[C@]12C[C@H]3S[C@H]3C[C@@H]1CC[C@@H]1[C@@H]2CC[C@]2(C)[C@@H](O)CC[C@@H]12 [Epitiostanol] |  |  |  |  |  |  | B-score functional assay (human NTCP [1]): 0.926; Ranking score (human NTCP [1]): 1032.88; B-score binding assay (human NTCP [2]): 0.911
11 | CC[C@H]1OC(=O)[C@H](C)[C@@H](O[C@H]2C[C@@](C)(OC)[C@@H](O)[C@H](C)O2)[C@H](C)[C@@H](O[C@@H]2O[C@H](C)C[C@H](N(C)C)[C@H]2O)[C@](C)(O)C[C@@H](C)C(=O)[C@H](C)[C@@H](O)[C@]1(C)O [Erythromycin] |  |  |  | 3.026 | 1129.71 | 0.93 | 
12 | COC(=O)CCc1ccc(OCC(O)CNC(C)C)cc1 (stereo not drawn) [Esmolol hydrochloride] |  |  |  | 0.736 | 1025.92 | 1.099 | 
13 | CCCCC(=O)O[C@H]1CC[C@H]2[C@@H]3CCc4cc(O)ccc4[C@H]3CC[C@]12C [Estradiol Valerate] | -0.153 | 776.511 | 1.969 |  |  |  | 
14 | C[C@]12CC[C@@H]3c4ccc(O)cc4CC[C@H]3[C@@H]1CCC2=O [Estrone] |  |  |  | 0.06 | 855.9 | 0.944 | 
15 | O=C(Cn1ccnc1[N+](=O)[O-])NCCO [Etanidazole] | -0.015 | 680.728 | 0.108 |  |  |  | 
16 | C=C(CC)C(=O)c1ccc(OCC(=O)O)c(Cl)c1Cl [Ethacrynic acid] |  |  |  | 0.935 | 1005.99 | 0.672 | 
17 | O=S(=O)(O)c1cc(O)ccc1O [Ethamsylate] |  |  |  | 0.032 | 873.696 | 1.4 | 
18 | CCOc1ccc(Cc2nccc3cc(OCC)c(OCC)cc23)cc1OCC [Ethaverine hydrochloride] |  |  |  | 0.024 | 885.91 | 1.651 | 

Row | Structure (SMILES) | B-score functional assay (human NTCP [1]; [3]) | Ranking score (human NTCP [1]; [4]) | B-score binding assay (human NTCP [2]; [5]) | B-score functional assay (human NTCP [1]; [9]) | Ranking score (human NTCP [1]; [10]) | B-score binding assay (human NTCP [2]; [11]) | further results
19 | C#C[C@]1(O)CC[C@H]2[C@@H]3CCC4=CC(=O)CC[C@]4(C)[C@H]3CC[C@@]21C [Ethisterone] | -0.564 | 653.06 | 2.018 |  |  |  | 
20 | CCN(CC)C(C)CN1c2ccccc2Sc2ccccc21 (stereo not drawn) [Ethopropazine hydrochloride] | 0.753 | 687.443 | -0.236 |  |  |  | 
21 | CCC1(C)CC(=O)NC1=O (stereo not drawn) [Ethosuximide] |  |  |  | 1.817 | 1070.41 | 0.697 | 
22 | CCN1C(=O)NC(c2ccccc2)C1=O (stereo not drawn) [Ethotoin] |  |  |  | 3.216 | 1133.18 | 0.936 | 
23 | CCOc1ccc2c(c1)C(C)=CC(C)(C)N2 [Ethoxyquin] |  |  |  |  |  |  | Ranking score (human NTCP [1]; [6]): 406.463; B-score functional assay (human NTCP [1]; [7]): 0.194; B-score binding assay (human NTCP [2]; [8]): -1.217
24 | CC(O)(P(=O)([O-])O)P(=O)([O-])O.[Na+].[Na+] [Etidronic acid, disodium salt] | -0.023 | 776.081 | 0.806 |  |  |  | 
25 | Cn1c(=O)c2c(ncn2CCO)n(C)c1=O [Etofylline] | 0.319 | 831.39 | 0.258 |  |  |  | 
26 | CCOC(=O)c1cncn1[C@H](C)c1ccccc1 [Etomidate] |  |  |  | 5.522 | 852.333 | -0.068 | 
27 | COc1cc([C@@H]2c3cc4c(cc3[C@@H](O[C@@H]3O[C@@H]5CO[C@@H](C)O[C@H]5[C@H](O)[C@H]3O)[C@H]3COC(=O)[C@H]23)OCO4)cc(OC)c1O [Etoposide] |  |  |  |  |  |  | Ranking score (human NTCP [1]; [6]): 333.467; B-score functional assay (human NTCP [1]; [7]): -1.678; B-score binding assay (human NTCP [2]; [8]): 0.046
28 | Cc1ccc(-c2ncc(Cl)cc2-c2ccc(S(C)(=O)=O)cc2)cn1 [Etoricoxib] |  |  |  |  |  |  | Ranking score (human NTCP [1]; [6]): 393.756; B-score functional assay (human NTCP [1]; [7]): -0.663; B-score binding assay (human NTCP [2]; [8]): -0.254
29 | CCOC(=O)/C=C(C)/C=C/C=C(C)/C=C/c1c(C)cc(OC)c(C)c1C [Etretinate] | 0.504 | 712.48 | -0.079 |  |  |  | 
30 | CC1CC(OC(=O)C(O)c2ccccc2)CC(C)(C)N1C (stereo not drawn) [Eucatropine hydrochloride] |  |  |  | 0.117 | 950.91 | 1.847 | 
31 | NC(N)=Nc1nc(CSCCC(N)=NS(N)(=O)=O)cs1 [Famotidine] | 0.754 | 828.628 | 0.039 |  |  |  | 
32 | CC(C)c1c(CN(C)C(C)Cc2ccccc2)n(C)n(-c2ccccc2)c1=O (stereo not drawn) [Famprofazone] |  |  |  |  |  |  | Ranking score (human NTCP [1]; [6]): 376.915; B-score functional assay (human NTCP [1]; [7]): -0.708; B-score binding assay (human NTCP [2]; [8]): -0.284
33 | O=C(O)CCC(=O)c1ccc(-c2ccccc2)cc1 [Fenbufen] |  |  |  |  |  |  | Ranking score (human NTCP [1]; [6]): 326.986; B-score functional assay (human NTCP [1]; [7]): -1.216; B-score binding assay (human NTCP [2]; [8]): -0.209
34 | CC(NCCC(c1ccccc1)c1ccccc1)c1ccccc1 (stereo not drawn) [Fendiline hydrochloride] |  |  |  | 0.662 | 880.552 | 0.223 | 
35 | CCCCC(O)c1ccccc1 (stereo not drawn) [Fenipentol] |  |  |  |  |  |  | Ranking score (human NTCP [1]; [6]): 460.361; B-score functional assay (human NTCP [1]; [7]): -0.409; B-score binding assay (human NTCP [2]; [8]): -0.138

Reference: paper PMC5681660, “Reduced hepatitis B and D viral entry using clinically applied drugs as novel inhibitors of the bile acid transporter NTCP” (Scientific Reports, 2017)
